According to US5922775A, “Method of treating malignant tumors with ketone thyroxine analogues having no significant hormonal activity” (priority 1997, dated 1999):

Experiments:
[1] = tested on: microtubule protein (MTP); test: Microtubule assembly (MTP polymerization) in vitro, optical test at 350 nm; assay type: biochemical, bovine or rabbit (brain); details: for inhibitory action on MTP assembly (comparison, FIG. 2): drug concentrations up to 20 μM; for order of potency on MTP assembly (FIG. 3): zero to 10 μM drug, lowered GTP concentration (10 μM); for Percent inhibition of intitial velocity (microtubule assembly in vitro): 10 μM drug, GTP 1 mM, 37° C., averages of duplicate assay; for effect of substitution on inhibition of MTP polymerization: compared with DIME
Source text: This inhibition is critically dependent on the concentration of GTP. The quantitative correlation between the concentrations of DIME and GTP, under conditions of a linear rate of MTP polymerization, follows Michaelis-Menten kinetics and the inhibition portrays a "mixed" type, where km for GTP and Vmax are altered simultaneously. Chemical analogues of DIME inhibit MTP polymerization parallel to their antitumorigenic action in vivo. The MTP site is one of the early cellular response sites of DIME.
J. Oncol. Abnormal spindle structures could be the result of DIME-MTP interaction or reactions of DIME with components of the microtubule organizing center or with as yet undefined systems sequentially or in concert. Since time-dependent quantitative analysis of the MTP system in situ is unsuitable for initial velocity measurement we adapted the in vitro assembly system of neurotubules as a model for a quantitative analysis of the interaction of DIME with MTP. […] The time course of MTP assembly consists of initiation and propagation and termination steps, Gaskin, et al., 1974, "Turbidimetric studies of the in vitro assembly and disassembly of porcine neurotubules", J. Mol. Biol. 89:737-758. The rate of propagation under defined conditions is sufficiently linear to permit kinetic analysis, that can be evaluated with respect DIME and GTP concentrations. As we show here the inhibition of MTP assembly by DIME occurs in the same range of drug concentration as required to inhibit tumorigonesis in vivo, or to inhibit cell replication or induce eventual cell death; Mendeleyev, et al., 1997. "Structural specificity and tumoricidal action of methyl-3,5-diiodo-4-(4'-methoxyphenoxy)benzoate (DIME)" Int. J. Oncol., 10:689-695. Therefore the DIME-MTP interaction is most probably a component of the apparently pleiotropic cellular mechanism of action of DIME.
Preparation of MTP and an optical test for polymerization was adopted from published methods, Gaskin, et al., 1974, "Turbidimetric studies of the in vitro assembly and disassembly of porcine neurotubules", J. Mol. Biol. 89:737-758; Tiwari, et al., 1993, "A pH and temperature-dependent cycling method that doubles the yield of microtubule protein", Anal. Biochem. 215:96-103. Bovine or rabbit brain was homogenized in an equal volume of ice cold buffer containing 100 mM Pipes/K^+ (pH 7.4), 4 mM EGTA. 1 mM MgCl2, 0.5 mM DTT and 0.1 mM PMSF, and centrifuged at 39,000 g for 1 hour at 4° C. To the supernatant, DMSO (8% final concentration) and GTP (1 mM final concentration) were added, followed by incubation at 37° C. for 30 minutes. Microtubules were pelleted at 100,000 g at 37° C. for 30 minutes. The pellets were incubated on ice for 15 minutes, followed by resuspension in ice cold PEM buffer (100 mM Pipes/K+ (pH 6.9), 1 mM EGTA, 1 mM MgCl2). This warm polymerization and cold depolymerization cycle was repeated once more and the cold, resuspended monomeric MTP (8-10 mg/ml protein) was used for the optical test for polymerization kinetics. Both rabbit or bovine brain yielded identical MTP preparations.
The polymerization reaction was started by the addition of […] of MTP solution (equivalent to 0.8-1.0 mg protein) and initial linear rates of increase in absorbance at 350 nm followed and recorded at 37° C. in a Perkin-Elmer 552 double beam spectrophotometer, equipped with a thermostatically controlled cuvette holder.
It is apparent that the rate of MTP polymerization proceeds in a linear manner, thus conditions for maximal polymerization rates as defined by Berne, B, 1974, "Interpretation of light scattering from long rods", J. Mol. Biol. 89:755-758 appear fulfilled. Therefore it is possible to determine the quantitative correlation between [DIME] and [GTP] by comparing the linear rate in the presence of varying drug and activator concentrations.
The assay system consisted of 240 μl of PEM buffer containing 8% DMSO […]
(added in 3 μl), or solvent control and 0.6 mg MTP (60 μl). […]

[2] = tested on: human mammary cancer cells (MDA-MB-231); test: Growth of human mammary cancer cells (Table 2 A); assay type: cell-based; details: 2 μM
Source text: (§1) The effects of these three substances on the growth of human mammary cancer cells (MDA-MB-231) and human lung cancer cells (A 549) are summarized in Table 2.
In section (a) of Table 2 the effects of DIME, DIPE and DIPP on the growth of mammary cancer cells, assayed at 48 and 72 hrs, is shown. […] The slightly lesser efficacy of DIPP could be predicted from earlier results obtained with DIME analogs (International Journal of Oncology, 1997, 10, 689-695, FIG. 1) where we have shown that extending the methyl to ethyl substitution (on the carboxyl ester) diminishes cytotoxicity against tumor cells. A similar phenomenon occurs when DIPE is extended to DIPP (i.e. from the ethanone to the propanone).
(§2) (×10^3) Cell number per 2 cm^2

[3] = tested on: human lung cancer cells (A 549); test: Growth of human lung cancer cells (Table 2 B); assay type: cell-based
Source text: as §1, §2

mammary cancer cells = test: Colony formation by mammary cancer cells (FIG. 1); assay type: cell-based, human; details: DIME vs DIPE
Source text: FIG. 1 is a graph illustrating the cell killing effects of DIME and DIPE on mammary cancer colonies;
The effect of DIME and DIPE on colony formation by mammary cancer cells is illustrated in FIG. 1, where the results are superimposable, confirming that cytocidal action of DIME and DIPE are indistinguishable.

cellular esterases = test: Stability against cellular esterases
Source text: Moreover, amide analogs of DIME, having an NH2 or a substituted amino group, may be subject to hydrolysis catalyzed by cellular amidases. Since the hydrolysis product of such a hydrolysis is a carboxylic acid, the same decrease in efficacy can result. In order to decrease the chemical lability in the DIME pharmacophore structure, ketone analogues of DIME may be used.
A more detailed kinetic comparison of DIME, DIPE and DIPP on the kinetics of MTP assembly, in a concentration range of zero to 10 μM drug and a louvered GTP concentration (10 μM), is shown in FIG. 3.

human cancer cells = details: cited from earlier work; for cytostatic / cytocidal activity: cellular assays and in vivo
E-ras 20 cells = details: carboxylic acid vs methyl ester; cited from earlier work
Rana pipiens tadpoles = details: tadpole metamorphosis; cited from earlier work
thyroid iodine uptake = details: rat, in vivo; cited from earlier work
[4] = tested on: non-malignant mouse pituitary adenoma; details: cited from earlier work

For `COc1ccc(Oc2c(I)cc(C(C)=O)cc2I)cc1` [DIPE, 1-[3,5-diiodo-4-(4'-methoxyphenoxy)-phenyl]-ethanone], the “inhibitory action on MTP assembly (comparison, FIG. 2)” value [1] was “similar”, the “order of potency on MTP assembly (FIG. 3)” value [1] was “DIME>DIPE>DIPP” and the Cell number ([2]; 48 hours, control 150) was 55 ×10^3 cell number per 2 cm^2 w. For the same molecule, the Cell number ([2]; 72 hours, control 300) was 60 ×10^3 cell number per 2 cm^2 w, the Cell number ([3]; 2 μM, 48 hours, control 110) was 78 ×10^3 cell number per 2 cm^2 w and the Cell number ([3]; 2 μM, 72 hours, control 190) was 81 ×10^3 cell number per 2 cm^2 w. For the same molecule, the Cell number ([3]; 5 μM + BNPP 150 μM (esterase inhibitor), 48 hours, control 110) was 37 ×10^3 cell number per 2 cm^2 w, the Cell number ([3]; 5 μM + BNPP 150 μM (esterase inhibitor), 72 hours, control 190) was 38 ×10^3 cell number per 2 cm^2 w and the Cell number ([3]; 5 μM, 48 hours, control 110) was 38 ×10^3 cell number per 2 cm^2 w. For the same molecule, the Cell number ([3]; 5 μM, 72 hours, control 190) was 40 ×10^3 cell number per 2 cm^2 w, the “effect of esterase inhibitor BNPP on cytocidal action” value ([3]; lung cancer cells, with BNPP) was “no supportive effect” and the “effect on colony formation (FIG. 1)” value (mammary cancer cells) was “superimposable”. For the same molecule, the stability against esterases (cellular esterases) was “absence of esterase action”.

In the case of `CCOc1ccc(Oc2c(I)cc(C(=O)OC)cc2I)cc1` [Compound 2], the “Percent inhibition of intitial velocity (microtubule assembly in vitro)” value (“Percent inhibition of intitial velocity” below) [1] is listed as 76%, the “effect of substitution on inhibition of MTP polymerization” value [1] is listed as “progressively diminishes inhibition of MTP polymerization” and the “maximal cytocidal action as compared to DIME” value (human cancer cells; human cancer cells) is listed as 25-30%.

In the case of `CCCOc1ccc(Oc2c(I)cc(C(=O)OC)cc2I)cc1` [4'-propoxy homologue], the “cytostatic / cytocidal activity” value (human cancer cells) is given as “completely inactive”.

For `CCOC(=O)c1cc(I)c(Oc2ccc(OC)cc2)c(I)c1` [Compound 5], the “Percent inhibition of intitial velocity” value [1] is given as 35% and the “cytostatic / cytocidal activity” value (human cancer cells) is given as “completely inactive”.

For `CCC(=O)c1cc(I)c(Oc2ccc(OC)cc2)c(I)c1` [DIPP, 1-[3,5-diiodo-4-(4'-methoxyphenoxy)-phenyl]-1-propanone], the “inhibitory action on MTP assembly (comparison, FIG. 2)” value [1] was “similar”, the “order of potency on MTP assembly (FIG. 3)” value [1] was “DIME>DIPE>DIPP” and the Cell number ([2]; 48 hours, control 150) was 90 ×10^3 cell number per 2 cm^2 w. The Cell number ([2]; 72 hours, control 300) was 145 ×10^3 cell number per 2 cm^2 w and the “effectiveness relative to DIME and DIPE” value ([2]; 72 hrs) was “about one half as effective as the other two drugs”.

For `COc1ccc(Oc2c(I)cc(C(=O)O)cc2I)cc1` [Compound 6], the “Percent inhibition of intitial velocity” value [1] is listed as 0%, the “effect of substitution on inhibition of MTP polymerization” value [1] is listed as “completely abolishes the inhibitory effect on MTP polymerization” and the “efficacy against tumor cells relative to ester” value (human cancer cells; carboxylic acid from hydrolysis of the ester) is listed as “much less efficacy against tumor cells than the ester”. The antitumorigenic action (E-ras 20 cells) was “only halves the antitumorigenic action”.

With `CCCCOc1ccc(Oc2c(I)cc(C(=O)OC)cc2I)cc1` [Compound 4] the “Percent inhibition of intitial velocity” value [1] was 8% and the “effect of substitution on inhibition of MTP polymerization” value [1] was “progressively diminishes inhibition of MTP polymerization”.

In the case of `NC(Cc1cc(I)c(Oc2cc(I)c(O)c(I)c2)c(I)c1)C(=O)O` (stereo not drawn) [thyroxine], the “cell differentiating / metamorphogenic activity” value (Rana pipiens tadpoles) is listed as “induces cell differentiation”, the “suppression of uptake of iodine by the thyroid” value (thyroid iodine uptake) is listed as “suppresses uptake of iodine by the thyroid” and the “inhibition of growth of non-malignant pituitary tumor” value [4] is listed as “depress growth of non-malignant mouse pituitary thyrotropic tumors”.

With `COc1ccc(Oc2c(I)cc(C(N)=O)cc2I)cc1` [Compound 7] the “Percent inhibition of intitial velocity” value [1] was 43%.

In the case of `COc1ccc(Oc2c(I)cc(C(=O)N(C)C)cc2I)cc1` [Compound 9], the “Percent inhibition of intitial velocity” value [1] is reported as 6%.

For `COC(=O)c1cc(I)c(Oc2ccc(OC)cc2Cl)c(I)c1` [2'-chloro analogue of DIME], the “maximal inhibitory action on growth as compared to DIME” value (human cancer cells; human cancer cells) is listed as “about 25%”.
